Paper PMC10254530, “Design and Synthesis of Brefeldin A-Isothiocyanate Derivatives with Selectivity and Their Potential for Cervical Cancer Therapy” (Molecules, 2023)
Structures can show the parent of a compound that is named as a salt.

Columns and labels:
[1] = tested on: HepG2 cells; assay: CCK-8 antiproliferative assay, HepG2; type: cell-based; details: Homo sapiens, HepG2; CCK-8, 48 h, mean ± SD of three experiments; read-out: IC50 HepG2
Description: (§1) All cells were cultured in Dulbecco’s Modified Eagle’s Medium (DMEM) (Burlington, MA, USA) or Roswell Park Memorial Institute (RPMI)-1640 medium containing 10% fetal bovine serum and 1% penicillin/streptomycin in an incubator at 37 °C and 5% CO2. […] Cell suspension with a concentration of 8 × 10^4 cells/mL was prepared after cell counting. 100 μL cell suspension was added to each well of the 96-well plate and then placed in an incubator overnight. Most of the derivatives were configured into 80 mM, 20 mM or 4 mM stock solution in DMSO, and the stock solution concentration of BFA and paclitaxel was 0.4 mM. […] The medium in each well was discarded, and 100 μL of gradient diluted derivative solution was added (the control group was added with serum-free medium).

[2] = tested on: MDA-MB-231 cells; assay: CCK-8 antiproliferative assay, MDA-MB-231; type: cell-based; details: Homo sapiens, MDA-MB-231; CCK-8, 48 h, mean ± SD of three experiments; read-out: IC50 MDA-MB-231
Description: as §1

[3] = tested on: A375 cells; assay: CCK-8 antiproliferative assay, A375; type: cell-based; details: Homo sapiens, A-375; CCK-8, 48 h, mean ± SD of three experiments; read-out: IC50 A375
Description: as §1

[4] = tested on: HeLa cells; assay: CCK-8 antiproliferative assay, HeLa; type: cell-based, human; details: for IC50: Homo sapiens, HeLa, CCK-8, 48 h, mean ± SD of three experiments, read-out: IC50 HeLa; for SIHeLa, selectivity index between L-02 and HeLa: SI = IC50(L-02)/IC50(HeLa)
Description: as §1

[5] = tested on: L-02 cells; assay: CCK-8 cytotoxicity assay, normal liver L-02; type: cell-based; details: Homo sapiens, L02; CCK-8, 48 h, normal liver cells, mean ± SD of three experiments; read-out: IC50 L-02
Description: as §1

[6] = tested on: A549 cells; assay: CCK-8 antiproliferative assay, A549; type: cell-based; details: Homo sapiens, A549; CCK-8, 48 h, mean ± SD of three experiments; read-out: IC50 A549
Description: as §1

SMILES	IC50 [1]	IC50 [2]	IC50 [3]	IC50 [4]	SIHeLa, selectivity index between L-02 and HeLa [4]	IC50 [5]	IC50 [6]
C[C@H]1CCC/C=C/[C@@H]2C[C@H](OC(=O)/C=C\C(=O)OCCOCCOC(=O)c3ccc(N=C=S)cc3)C[C@H]2[C@H](OC(=O)/C=C\C(=O)OCCOCCOC(=O)c2ccc(N=C=S)cc2)/C=C/C(=O)O1 [Compound 8j, Bis(2-(2-((4-isothiocyanatobenzoyl)oxy)ethoxy)ethyl) O,O’-((1R,2E,6S,10E,11aS,13S,14aR)-6-methyl-4-oxo-1,6,7,8,9,11a,12,13,14,14a-decahydro-4H-cyclopenta[f][1]oxacyclotridecine-1,13-diyl) dimaleate]	> 40 µM	> 40 µM	> 40 µM	30.6 ± 2.12 µM	0.70	21.27 ± 0.16 µM	23.79 ± 0.02 µM
C[C@H]1CCC/C=C/[C@@H]2C[C@H](OC(=O)/C=C\C(=O)OCCCCCCOC(=O)c3ccc(N=C=S)cc3)C[C@H]2[C@H](OC(=O)/C=C\C(=O)OCCCCCCOC(=O)c2ccc(N=C=S)cc2)/C=C/C(=O)O1 [Compound 8k, Bis(6-((4-isothiocyanatobenzoyl)oxy)hexyl) O,O’-((1R,2E,6S,10E,11aS,13S,14aR)-6-methyl-4-oxo-1,6,7,8,9,11a,12,13,14,14a-decahydro-4H-cyclopenta[f][1]oxacyclotridecine-1,13-diyl) dimaleate]	> 40 µM	> 40 µM	> 40 µM	> 40 µM	–	> 80 µM	> 40 µM
C[C@H]1CCC/C=C/[C@@H]2C[C@H](O)C[C@H]2[C@H](OC(=O)CCC(=O)OCCOC(=O)c2ccc(N=C=S)cc2)/C=C/C(=O)O1 [Compound 9a, (1R,2E,6S,10E,11aS,13S,14aR)-13-Hydroxy-6-methyl-4-oxo-1,6,7,8,9,11a,12,13,14,14a-decahydro-4H-cyclopenta[f][1]oxacyclotridecin-1-yl (2-((4-isothiocyanatobenzoyl)oxy)ethyl) succinate]	5.93 ± 0.03 µM	8.04 ± 0.01 µM	2.07 ± 0.09 µM	2.69 ± 0.3 µM	5.75	15.5 ± 1.22 µM	8.29 ± 0.1 µM
C[C@H]1CCC/C=C/[C@@H]2C[C@H](O)C[C@H]2[C@H](OC(=O)CCC(=O)OCCCCOC(=O)c2ccc(N=C=S)cc2)/C=C/C(=O)O1 [Compound 9b, (1R,2E,6S,10E,11aS,13S,14aR)-13-Hydroxy-6-methyl-4-oxo-1,6,7,8,9,11a,12,13,14,14a-decahydro-4H-cyclopenta[f][1]oxacyclotridecin-1-yl (4-((4-isothiocyanatobenzoyl)oxy)butyl) succinate]	6.54 ± 0.18 µM	2.23 ± 0.04 µM	2.79 ± 0.25 µM	2.28 ± 0.04 µM	4.63	10.6 ± 0.6 µM	2.84 ± 0.02 µM
C[C@H]1CCC/C=C/[C@@H]2C[C@H](O)C[C@H]2[C@H](OC(=O)CCC(=O)OCC#CCOC(=O)c2ccc(N=C=S)cc2)/C=C/C(=O)O1 [Compound 9c, (1R,2E,6S,10E,11aS,13S,14aR)-13-Hydroxy-6-methyl-4-oxo-1,6,7,8,9,11a,12,13,14,14a-decahydro-4H-cyclopenta[f][1]oxacyclotridecin-1-yl (4-((4-isothiocyanatobenzoyl)oxy)but-2-yn-1-yl) succinate]	8.84 ± 0.28 µM	9.77 ± 0.22 µM	10.4 ± 0.16 µM	3.63 ± 0.15 µM	4.79	17.4 ± 0.44 µM	13.19 ± 0.03 µM
C[C@H]1CCC/C=C/[C@@H]2C[C@H](O)C[C@H]2[C@H](OC(=O)CCC(=O)OCCOCCOC(=O)c2ccc(N=C=S)cc2)/C=C/C(=O)O1 [Compound 9d, (1R,2E,6S,10E,11aS,13S,14aR)-13-Hydroxy-6-methyl-4-oxo-1,6,7,8,9,11a,12,13,14,14a-decahydro-4H-cyclopenta[f][1]oxacyclotridecin-1-yl (2-(2-((4-isothiocyanatobenzoyl)oxy)ethoxy)ethyl) succinate]	2.34 ± 0.31 µM	2.05 ± 0.27 µM	2.93 ± 0.12 µM	0.99 ± 0.02 µM	–	9.18 ± 0.13 µM	2.85 ± 0.1 µM
C[C@H]1CCC/C=C/[C@@H]2C[C@H](O)C[C@H]2[C@H](OC(=O)CCC(=O)OCCCCCCOC(=O)c2ccc(N=C=S)cc2)/C=C/C(=O)O1 [Compound 9e, (1R,2E,6S,10E,11aS,13S,14aR)-13-Hydroxy-6-methyl-4-oxo-1,6,7,8,9,11a,12,13,14,14a-decahydro-4H-cyclopenta[f][1]oxacyclotridecin-1-yl (6-((4-isothiocyanatobenzoyl)oxy)hexyl) succinate]	5.77 ± 0.07 µM	1.56 ± 0.05 µM	3.87 ± 0.35 µM	0.81 ± 0.03 µM	–	7.87 ± 0.33 µM	2.59 ± 0.13 µM
C[C@H]1CCC/C=C/[C@@H]2C[C@H](O)C[C@H]2[C@H](OC(=O)CCC(=O)Oc2ccc(OC(=O)c3ccc(N=C=S)cc3)cc2)/C=C/C(=O)O1 [Compound 9f, (1R,2E,6S,10E,11aS,13S,14aR)-13-Hydroxy-6-methyl-4-oxo-1,6,7,8,9,11a,12,13,14,14a-decahydro-4H-cyclopenta[f][1]oxacyclotridecin-1-yl (4-((4-isothiocyanatobenzoyl)oxy)phenyl) succinate]	27.7 ± 0.47 µM	32.1 ± 1.03 µM	21.3 ± 0.33 µM	13.1 ± 0.45 µM	1.91	25.1 ± 0.82 µM	16.18 ± 0.06 µM
C[C@H]1CCC/C=C/[C@@H]2C[C@H](O)C[C@H]2[C@H](OC(=O)/C=C\C(=O)OCCOC(=O)c2ccc(N=C=S)cc2)/C=C/C(=O)O1 [Compound 9g, (1R,2E,6S,10E,11aS,13S,14aR)-13-Hydroxy-6-methyl-4-oxo-1,6,7,8,9,11a,12,13,14,14a-decahydro-4H-cyclopenta[f][1]oxacyclotridecin-1-yl (2-((4-isothiocyanatobenzoyl)oxy)ethyl) maleate]	12.8 ± 0.15 µM	7.51 ± 0.07 µM	11.9 ± 0.54 µM	3.63 ± 0.23 µM	5.75	20.9 ± 0.49 µM	10.4 ± 0.59 µM
C[C@H]1CCC/C=C/[C@@H]2C[C@H](O)C[C@H]2[C@H](OC(=O)/C=C\C(=O)OCCCCOC(=O)c2ccc(N=C=S)cc2)/C=C/C(=O)O1 [Compound 9h, (1R,2E,6S,10E,11aS,13S,14aR)-13-Hydroxy-6-methyl-4-oxo-1,6,7,8,9,11a,12,13,14,14a-decahydro-4H-cyclopenta[f][1]oxacyclotridecin-1-yl (4-((4-isothiocyanatobenzoyl)oxy)butyl) maleate]	13.27 ± 0.1 µM	5.71 ± 0.2 µM	11.2 ± 0.29 µM	9.68 ± 0.24 µM	2.87	27.8 ± 1.39 µM	8.54 ± 0.26 µM
C[C@H]1CCC/C=C/[C@@H]2C[C@H](O)C[C@H]2[C@H](OC(=O)/C=C\C(=O)OCC#CCOC(=O)c2ccc(N=C=S)cc2)/C=C/C(=O)O1 [Compound 9i, (1R,2E,6S,10E,11aS,13S,14aR)-13-Hydroxy-6-methyl-4-oxo-1,6,7,8,9,11a,12,13,14,14a-decahydro-4H-cyclopenta[f][1]oxacyclotridecin-1-yl (4-((4-isothiocyanatobenzoyl)oxy)but-2-yn-1-yl) maleate]	11.9 ± 0.32 µM	10 ± 0.26 µM	9.1 ± 0.46 µM	6.59 ± 0.75 µM	4.27	28.14 ± 0.14 µM	10.3 ± 0.35 µM
